From ChEMBL document CHEMBL1201862, “PubChem BioAssay data set” (2004) come the findings set out here.

Common to all, as to test: NCI-60 cell line screen, 48 h
Assay [1] has as its system SK-MEL-28.
The test system of assay [2] is UO-31.
Assay [3] relates to UACC-62.
The subject of assay [4] is SK-MEL-5.
Assay [5] has as its system IGROV-1.
In assay [6] the test system is 786-0.
Assay [7] concerns OVCAR-8.
Assay [8] concerns LOX IMVI.
For assay [9], the system named is CCRF-CEM.
Assay [10] deals with SNB-19.
Assay [11] concerns K562.
Assay [12] concerns Hs-578T.
The subject of assay [13] is RXF 393.
The subject of assay [14] is SK-OV-3.
For assay [15], the system named is U-251.
Assay [16] concerns TK-10.
Assay [17] deals with OVCAR-4.
Assay [18] has as its system EKVX.
Assay [19] deals with UACC-257.
Assay [20] relates to A498.

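Values below derive from 48-hour exposures of cells grown in 96-well plates, with endpoints linearly interpolated between the two concentrations bracketing the appropriate inhibition level. GI50: concentration for 50% inhibition of growth.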 Active and inactive are the calls of the source. Cut-off read from the data, not from the text of the source: active = GI50 up to about 1.1 µM and inactive = higher.

Consider `Cc1nnc2n(c1=O)CCCN2C`, for which the GI50 in assay [1], in [2], in assay [3], in assay [4], in assay [5] and in assay [6] was > 100 µM (inactive) each time. Moreover, the GI50 in [7], in assay [8], in [9], in [10], in assay [11] and in assay [12] was > 100 µM (inactive) each time. Also, the GI50 in assay [13], in [14], in [15], in assay [16], in assay [17] and in assay [18] was > 100 µM (inactive) each time.
As to `Nc1ccc2c(O)cc(O)nc2n1`, the GI50 in assay [1], in assay [2], in [3], in assay [4], in assay [5] and in assay [6] was > 100 µM (inactive) in each case. Besides, the GI50 in [19], in assay [7], in [10], in assay [11], in assay [12] and in [13] was > 100 µM (inactive) throughout. The GI50 in assay [14], in [15], in [16], in assay [17] and in [18] was > 100 µM (inactive) each time.
On to `[N-]=[N+]=NCN1C(=O)C2C3C=CC(C2C1=O)C1C2C(=O)N(CN=[N+]=[N-])C(=O)C2C31` (configuration not stated), for which the GI50 in [1], in assay [2], in assay [3], in assay [4], in [5] and in [6] was > 100 µM (inactive) each time. Moreover, the GI50 in [19], in assay [7], in assay [8], in assay [10], in [11] and in [12] was > 100 µM (inactive) throughout. Also, the GI50 in [16] and in [18] was > 100 µM (inactive) in each case.
Take `Nc1nc(N)c2nc(CN(C=O)c3ccc(C(=O)O)cc3)cnc2n1`: the GI50 in assay [1] is > 100 µM (inactive); in [2] it was > 22.3 µM (inactive); in assay [3] it was 7.11 µM (inactive); in assay [4] it was 63.4 µM (inactive); in assay [5] it was 44.5 µM (inactive); in [6] it was 3.05 µM (inactive). Also, the GI50 was > 100 µM (inactive) in assay [19]; 3.85 µM (inactive) in assay [7]; 4.27 µM (inactive) in [8]; 4.15 µM (inactive) in assay [9]; > 42.2 µM (inactive) in [10]; 1.6 µM (inactive) in assay [11]. In addition, the GI50 is > 100 µM (inactive) in assay [12]; > 100 µM (inactive) in assay [13]; > 30.1 µM (inactive) in assay [14]; > 93.5 µM (inactive) in assay [15]; > 29.2 µM (inactive) in assay [16]; > 100 µM (inactive) in assay [17]. The GI50 in [18] was > 26.4 µM (inactive).
Regarding `CN1C(c2ccccc2)=CC(=O)C(O)=C(c2ccccc2)S1(=O)=O`, the GI50 in [1], in assay [2], in assay [3], in assay [4], in [5] and in assay [6] was > 100 µM (inactive) throughout. For the same molecule, the GI50 in assay [19], in [7], in assay [8], in assay [9], in [10] and in assay [11] was > 100 µM (inactive) in each case. For the same molecule, the GI50 in assay [12], in assay [13], in assay [14], in [15], in [16] and in assay [17] was > 100 µM (inactive) each time. Also, the GI50 in assay [18] was > 100 µM (inactive).
For the molecule `NC(=O)C#CC#CC#CCO`, the GI50 was 2.14 µM (inactive) in assay [1]; 1.95 µM (inactive) in [2]; 1.92 µM (inactive) in assay [3]; 4.4 µM (inactive) in assay [20]; 1.98 µM (inactive) in [4]; 2.72 µM (inactive) in [5]. Besides, the GI50 is 1.59 µM (inactive) in assay [6]; 2.33 µM (inactive) in assay [19]; 1.81 µM (inactive) in assay [7]; 2.09 µM (inactive) in assay [8]; 0.843 µM (active) in assay [9]; 14.9 µM (inactive) in assay [10]. Besides, the GI50 was 2.04 µM (inactive) in assay [11]; 2.09 µM (inactive) in assay [13]; 12.8 µM (inactive) in assay [14]; 2 µM (inactive) in assay [15]; 1.61 µM (inactive) in [16]; 1.83 µM (inactive) in assay [17]. Also, the GI50 in [18] was 1.68 µM (inactive).
On to `COc1ccc(CN=C(N)N)c2ccccc12`, for which the GI50 in assay [1] was 22.3 µM (inactive); in [2], 23.5 µM (inactive); in assay [3] it was 39.4 µM (inactive); in assay [4] it was 20 µM (inactive); in [6], 12.7 µM (inactive); in [19], 47 µM (inactive). In addition, the GI50 in [7] is 38.8 µM (inactive); in assay [8], 24.8 µM (inactive); in [9] it was 38.3 µM (inactive); in assay [10], 18.4 µM (inactive); in [12], 24.1 µM (inactive); in [13] it was 33.7 µM (inactive). The GI50 is 34.8 µM (inactive) in assay [14], 16.4 µM (inactive) in [15], 22.2 µM (inactive) in assay [16] and 21.1 µM (inactive) in [18].
Turning to `CC(=O)O[C@H]1C(=O)[C@@]2(C)[C@H]([C@H](OC(=O)c3ccccc3)[C@]3(O)C[C@H](OC(=O)[C@H](O)[C@@H](NC(=O)C(C)(C)C)c4ccccc4)C(C)=C1C3(C)C)[C@]1(OC(C)=O)CO[C@@H]1C[C@@H]2O`, the GI50 in assay [1] was 0.105 µM (active); in assay [2] it was 0.395 µM (active); in assay [3] it was 0.0485 µM (active); in assay [4], 0.0435 µM (active); in [5], 0.0476 µM (active); in [6], 0.324 µM (active). The GI50 in [19] was 0.127 µM (active); in assay [7] it was 0.0668 µM (active); in assay [8], 0.0542 µM (active); in [9] it was 0.0397 µM (active); in [10], 2.35 µM (inactive); in assay [11], 0.0516 µM (active). In addition, the GI50 was 0.0485 µM (active) in assay [12]; 0.188 µM (active) in [13]; 0.0177 µM (active) in [14]; 0.137 µM (active) in assay [15]; 0.38 µM (active) in assay [16]; > 10 µM (inactive) in assay [17]. Also, the GI50 in assay [18] was 1.87 µM (inactive).
For `CC1(C)[C@@H]2C[C@H]1[C@@H](Cc1cccc(C[C@H]3c4cc(-c5ccccn5)ncc4[C@H]4C[C@@H]3C4(C)C)c1)c1cc(-c3ccccn3)ncc12`, the GI50 in assay [1] was 4.92 µM (inactive); in assay [2] it was 1.22 µM (inactive); in [3] it was 2.92 µM (inactive); in assay [20] it was > 44.4 µM (inactive); in [4] it was 3.36 µM (inactive); in assay [5], 3.49 µM (inactive). Further, the GI50 in assay [6] was 2.1 µM (inactive); in assay [19], 4.62 µM (inactive); in [7], 1.79 µM (inactive); in [8], 1.75 µM (inactive); in [9], 1.11 µM (active); in [10] it was 3.46 µM (inactive). The GI50 in assay [11] was 1.19 µM (inactive); in assay [13], 4.39 µM (inactive); in assay [14] it was > 100 µM (inactive); in assay [15], 2.92 µM (inactive); in assay [16] it was > 39.5 µM (inactive); in assay [17] it was > 100 µM (inactive). In addition, in [18], the GI50 is 4.62 µM (inactive).
On to `O=c1[nH]c(=O)n(COC(CO)CO)cc1-c1ccccc1`, for which the GI50 in assay [1], in assay [2], in assay [3], in assay [4], in assay [5] and in [6] was > 100 µM (inactive) in each case. For the same molecule, the GI50 in assay [19], in assay [7], in [8], in [9], in assay [10] and in assay [11] was > 100 µM (inactive) in each case. Further, the GI50 in [12], in assay [14], in [15], in assay [16], in assay [17] and in [18] was > 100 µM (inactive) in each case.
With `O=C1C(NS(=O)(=O)c2ccccc2)=C(N(Cc2ccccc2)Cc2ccccc2)C(=O)c2ccccc21`, the GI50 in [1] is 40.9 µM (inactive); in assay [2], 19.2 µM (inactive); in [3], 33.4 µM (inactive); in assay [4], 80.4 µM (inactive); in assay [5], 41.8 µM (inactive); in [6], 49.3 µM (inactive). Further, the GI50 in assay [19] was 96.8 µM (inactive); in assay [7], 70.3 µM (inactive); in [8], 65.3 µM (inactive); in [9] it was 20.2 µM (inactive); in assay [10], 38.6 µM (inactive); in assay [11] it was 31.1 µM (inactive). For the same molecule, the GI50 in assay [12] is 81.3 µM (inactive); in [13], 15.5 µM (inactive); in assay [14], 39.9 µM (inactive); in assay [15], 35 µM (inactive); in [16], 66.8 µM (inactive); in [17], 19.5 µM (inactive). In addition, the GI50 in [18] was 53.7 µM (inactive).
